# Measurements reported in patent US20230248847A1, “MULTIFUNCTIONAL NANOPARTICLES FOR THERAGNOSIS” (priority 2018, published 2023).
# Legend:
# [1] = In vivo toxicity assays (survival, external signs, weight, motor activity); parameters: species or system NSG mice; settings: for external side effects observed: intravenous every 3 days
# Procedure: All the in vivo experiments were performed in NOD scid gamma mice (NSG, NOD.Cg-Prkdcscid II2rgtmlWjl/SzJ). The animal wellbeing and experimental methods were carried out according to institutional guidelines (Research Ethics Committee of University of Granada, Spain) and international guidelines (European Community Council Directive 86/609). All the animals (n=5 per group) were kept in a micro-ventilated cage system with a 12-h light/darkness cycle, and handled in a laminar flow cabinet to maintain the specific pathogen-free conditions. To establish orthotopic xenograft tumours, female mice six to eight weeks of age were used. The mice were anaesthetised by means of the inhalation of isoflurane and tumours were generated in the right breast by means of subcutaneous injections of 5×10^5 cells/mouse mixed with Corning® Matrigel® Matrix and with 26-gauge needles. The intravenous administration of PBS (control), free DOX, and NPs in the tail vein of the mice was performed every three days for a period of 43 days, as was the fluorescence evaluation by means of IVIS® (Perkin Elmer). Tumour growth was evaluated twice a week with a digital calibrator and tumour volume was calculated by means of the formula V=(length) 2×width×π/6. The weight of the mice was also measured every three days. The endpoint of the experiment was day 44. […] During that month, the fluorescence of the mice was analyzed in IVIS® once a week. Lastly, the mice were sacrificed by cervical dislocation and the tumours were extirpated, photographed, and analyzed by means of IVIS®.
# In another assay, a series of experiments were carried out to control the in vivo toxicity of the treatment. […] The percentage of survival (FIG. 12) during the treatment period was 100% both for mice treated with NPs and for controls. However, treatment with DOX caused a high impact on survival. After 30 days of treatment, there was a drastic decrease in the percentage of survival (30%). This effect could be attributed to the inherent systemic toxicity of this anti-tumour drug and to the serious side effects of this conventional chemotherapy treatment.
# Furthermore, in order to observe the toxic effect of the treatment at the central nervous system level, a standardised protocol for testing movement was carried out on day 30 in a cage with a camera prepared for this purpose. This camera analyzes the distance the mouse travels in 24 hours.
# [2] = system: orthotopic xenograft tumours of MDA-MB-231 breast cancer cell line; assay: In vivo therapeutic efficacy, orthotopic MDA-MB-231 breast cancer xenograft; parameters: species or system NSG mice
# Procedure: An orthotopic xenotransplantation of the triple-negative human MDA-MB-231 breast cancer cell line was performed in immunocompromised female NSG mice. The mice (5 per group) were divided into 3 groups and treated according to the protocol approved by the Institutional Animal Care and Use Committee (IACUC) of the University of Granada and the Regional Government of Andalusia according to the European Directive on the protection of animals used for scientific purposes (2010/63/EU) and Spanish law (Royal Decree 53/2013). […]
compound,measurement,setting,value
COc1cccc2c1C(=O)c1c(O)c3c(c(O)c1C2=O)C[C@@](O)(C(=O)CO)C[C@@H]3O[C@H]1C[C@H](N)[C@H](O)[C@H](C)O1 [doxorubicin],external side effects observed,"[1]; NSG mice, listed as DOX",high cutaneous toxicity caused in the tail
same,external side effects observed,"[1]; NSG mice, listed as free DOX","weight loss, goose bumps, behaviour disorders, and damaged tail"
same,percentage of survival,"[1]; after 30 days of treatment, NSG mice",30%
same,weight of mice during treatment,[1]; compared with untreated control mice or mice treated with theranostic NPs,significant weight reduction
same,motor activity (distance travelled in 24 hours),"[1]; day 30, cage with camera",significant decrease in mouse mobility
same,histological analysis of xenograft tumour tissues (cellularity),"[2]; haematoxylin/eosin and DAPI staining after treatment, vs control group",cellularity decreased significantly
same,therapeutic effect on tumour growth / tumour volume,"[2]; intravenous every 3 days for 43 days, NSG mice, n=5 per group, vs PBS",significant inhibition of tumour growth
same,time after which inhibition of tumour growth was significant,"[2]; intravenous every 3 days, NSG mice",3 weeks
